According to patent publication US7034162B2, “Amorphous form of 3-[2-(dimethylamino) ethyl]-N-methyl-1H-indole-5-methane sulfonamide succinate (sumatriptan succinate)” (Dr. Reddy's Laboratories Limited, priority 2000, dated 2006):

Assay: thermal stability of the solid (stated property, no method described)
Format: physicochemical
Details: solid amorphous form; test conditions not given

CNS(=O)(=O)Cc1ccc2[nH]cc(CCN(C)C)c2c1.O=C(O)CCC(=O)O [amorphous form of Sumatriptan succinate, 3-[2-(dimethylamino)ethyl]-N-methyl-1H-indole-5-methane sulfonamide succinate]
thermal stability of the solid: thermally stable
